{"source": "patent US11919901B2", "about": "(Syndax Pharmaceuticals, Inc., priority 2021, dated 2024)", "note": "pIC50: −log10 of the molar value.", "data": [{"tested_on": "MV4-11 cells", "assay": "Cell proliferation assay MV4;11 (CellTiter-Glo, 72 hours)", "assay_type": "cell-based", "conditions": "Homo sapiens; MV4;11 leukemia cell line, 72 hours; read-out: MV4; 11 IC50", "outline": "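Luminescent CellTiter-Glo readout after 72 h culture, 37 °C, 5% CO2, expressed relative to vehicle-treated wells, with maximal inhibition taken at the highest dose. MLL-rearranged MV4-11 leukemia cells; final compound range 0.632 to 2000 nM in eight steps.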", "values": [{"smiles": "CCN(C(=O)c1cc(F)ccc1Oc1cncnc1N1CC2(CCN(C[C@@H]3CC[C@@H](NS(=O)(=O)NC)CO3)CC2)C1)C(C)C", "note": "[Example 76, N-Ethyl-5-fluoro-N-isopropyl-2-((4-(7-(((2S,5R)-5-((N-methylsulfamoyl)amino)tetrahydro-2H-pyran-2-yl)methyl)-2,7-diazaspiro[3.5]nonan-2-yl)pyrimidin-5-yl)oxy)benzamide]", "pIC50": "> 7.00"}, {"smiles": "CC(C)N(C(=O)c1cc(F)ccc1Oc1cncnc1N1CC2(CCN(C[C@@H]3CC[C@@H](NS(=O)(=O)N(C)C)CO3)CC2)C1)C(C)C", "note": "[Example 77, 2-((4-(7-(((2S,5R)-5-((N,N-Dimethylsulfamoyl)amino)tetrahydro-2H-pyran-2-yl)methyl)-2,7-diazaspiro[3.5]nonan-2-yl)pyrimidin-5-yl)oxy)-5-fluoro-N,N-diisopropylbenzamide]", "pIC50": "> 7.00"}, {"smiles": "CC(C)N(C(=O)c1cc(F)ccc1Oc1cncnc1N1CC2(CCN(C[C@@H]3CC[C@@H](NS(=O)(=O)N4CCOCC4)CO3)CC2)C1)C(C)C", "note": "[Example 78, 5-Fluoro-N,N-diisopropyl-2-((4-(7-(((2S,5R)-5-(morpholine-4-sulfonamido)tetrahydro-2H-pyran-2-yl)methyl)-2,7-diazaspiro[3.5]nonan-2-yl)pyrimidin-5-yl)oxy)benzamide]", "pIC50": "> 7.00"}, {"smiles": "CC(C)N(C(=O)c1cc(F)ccc1Oc1cncnc1N1CC2(CCN(C[C@@H]3CC[C@@H](NS(=O)(=O)N4CCC4)CO3)CC2)C1)C(C)C", "note": "[Example 88, 2-((4-(7-(((2S,5R)-5-(Azetidine-1-sulfonamido)tetrahydro-2H-pyran-2-yl)methyl)-2,7-diazaspiro[3.5]nonan-2-yl)pyrimidin-5-yl)oxy)-5-fluoro-N,N-diisopropylbenzamide]", "pIC50": "> 7.00"}, {"smiles": "CC(C)N(C(=O)c1cc(F)ccc1Oc1cncnc1N1CC2(CCN(C[C@@H]3CC[C@@H](NS(=O)(=O)N(C)C(C)C)CO3)CC2)C1)C(C)C", "note": "[Example 89, 5-Fluoro-N,N-diisopropyl-2-((4-(7-(((2S,5R)-5-((N-isopropyl-N-methylsulfamoyl)amino)tetrahydro-2H-pyran-2-yl)methyl)-2,7-diazaspiro[3.5]nonan-2-yl)pyrimidin-5-yl)oxy)benzamide]", "pIC50": "> 7.00"}, {"smiles": "CC(C)N(C(=O)c1cc(F)ccc1Oc1cncnc1N1CC2(CCN(C[C@@H]3CC[C@@H](NS(N)(=O)=O)CO3)CC2)C1)C(C)C", "note": "[Example 90, 5-Fluoro-N,N-diisopropyl-2-((4-(7-(((2S,5R)-5-(sulfamoylamino)tetrahydro-2H-pyran-2-yl)methyl)-2,7-diazaspiro[3.5]nonan-2-yl)pyrimidin-5-yl)oxy)benzamide]", "pIC50": "> 7.00"}, {"smiles": "CC(C)N(C(=O)c1cc(F)ccc1Oc1cncnc1N1CC2(CCN(C[C@@H]3CC[C@@H](NS(=O)(=O)N(C)C)CO3)CC2)C1)C1CC1", "note": "[Example 93, N-Cyclopropyl-2-((4-(7-(((2S,5R)-5-((N,N-dimethylsulfamoyl)amino)tetrahydro-2H-pyran-2-yl)methyl)-2,7-diazaspiro[3.5]nonan-2-yl)pyrimidin-5-yl)oxy)-5-fluoro-N-isopropylbenzamide]", "pIC50": "> 7.00"}, {"smiles": "CC(C)N(CC(F)F)C(=O)c1cc(F)ccc1Oc1cncnc1N1CC2(CCN(C[C@@H]3CC[C@@H](NS(=O)(=O)N4CCOCC4)CO3)CC2)C1", "note": "[Example 94, N-(2,2-Difluoroethyl)-5-fluoro-N-isopropyl-2-((4-(7-(((2S,5R)-5-(morpholine-4-sulfonamido)tetrahydro-2H-pyran-2-yl)methyl)-2,7-diazaspiro[3.5]nonan-2-yl)pyrimidin-5-yl)oxy)benzamide]", "pIC50": "> 7.00"}, {"smiles": "CC(C)N(CC(F)F)C(=O)c1cc(F)ccc1Oc1cncnc1N1CC2(CCN(C[C@@H]3CC[C@@H](NS(=O)(=O)N(C)C)CO3)CC2)C1", "note": "[Example 95, N-(2,2-Difluoroethyl)-2-((4-(7-(((2S,5R)-5-((N,N-dimethylsulfamoyl)amino)tetrahydro-2H-pyran-2-yl)methyl)-2,7-diazaspiro[3.5]nonan-2-yl)pyrimidin-5-yl)oxy)-5-fluoro-N-isopropylbenzamide]", "pIC50": "> 7.00"}, {"smiles": "CC(C)N(CC(F)F)C(=O)c1cc(F)ccc1Oc1cncnc1N1CC2(CCN(C[C@@H]3CC[C@@H](NS(C)(=O)=O)CO3)CC2)C1", "note": "[Example 96, N-(2,2-Difluoroethyl)-5-fluoro-N-isopropyl-2-((4-(7-(((2S,5R)-5-(methylsulfonamido)tetrahydro-2H-pyran-2-yl)methyl)-2,7-diazaspiro[3.5]nonan-2-yl)pyrimidin-5-yl)oxy)benzamide]", "pIC50": "> 7.00"}, {"smiles": "CCN(CC)S(=O)(=O)N[C@@H]1CC[C@@H](CN2CCC3(CC2)CN(c2ncncc2Oc2ccc(F)cc2C(=O)N(CC(F)F)C(C)C)C3)OC1", "note": "[Example 97, 2-((4-(7-(((2S,5R)-5-((N,N-Diethylsulfamoyl)amino)tetrahydro-2H-pyran-2-yl)methyl)-2,7-diazaspiro[3.5]nonan-2-yl)pyrimidin-5-yl)oxy)-N-(2,2-difluoroethyl)-5-fluoro-N-isopropylbenzamide]", "pIC50": "> 7.00"}, {"smiles": "CC(C)N(CC(F)F)C(=O)c1cc(F)ccc1Oc1cncnc1N1CC2(CCN(C[C@@H]3CC[C@@H](NS(=O)(=O)N4CCC4)CO3)CC2)C1", "note": "[Example 99, 2-((4-(7-(((2S,5R)-5-(Azetidine-1-sulfonamido)tetrahydro-2H-pyran-2-yl)methyl)-2,7-diazaspiro[3.5]nonan-2-yl)pyrimidin-5-yl)oxy)-N-(2,2-difluoroethyl)-5-fluoro-N-isopropylbenzamide]", "pIC50": "> 7.00"}, {"smiles": "CC(C)N(CC(F)F)C(=O)c1cc(F)ccc1Oc1cncnc1N1CC2(CCN(C[C@@H]3CC[C@@H](NS(=O)(=O)N(C)C(C)C)CO3)CC2)C1", "note": "[Example 101, N-(2,2-Difluoroethyl)-5-fluoro-N-isopropyl-2-((4-(7-(((2S,5R)-5-((N-isopropyl-N-methylsulfamoyl)amino)tetrahydro-2H-pyran-2-yl)methyl)-2,7-diazaspiro[3.5]nonan-2-yl)pyrimidin-5-yl)oxy)benzamide]", "pIC50": "> 7.00"}, {"smiles": "CNS(=O)(=O)N[C@@H]1CC[C@@H](CN2CCC3(CC2)CN(c2ncncc2Oc2ccc(F)cc2C(=O)N(CC(F)F)C(C)C)C3)OC1", "note": "[Example 102, N-(2,2-Difluoroethyl)-5-fluoro-N-isopropyl-2-((4-(7-(((2S,5R)-5-((N-methylsulfamoyl)amino)tetrahydro-2H-pyran-2-yl)methyl)-2,7-diazaspiro[3.5]nonan-2-yl)pyrimidin-5-yl)oxy)benzamide]", "pIC50": "> 7.00"}, {"smiles": "CC(C)N(CC(F)(F)F)C(=O)c1cc(F)ccc1Oc1cncnc1N1CC2(CCN(C[C@@H]3CC[C@@H](NS(=O)(=O)N(C)C)CO3)CC2)C1", "note": "[Example 107, 2-((4-(7-(((2S,5R)-5-((N,N-Dimethylsulfamoyl)amino)tetrahydro-2H-pyran-2-yl)methyl)-2,7-diazaspiro[3.5]nonan-2-yl)pyrimidin-5-yl)oxy)-5-fluoro-N-isopropyl-N-(2,2,2-trifluoroethyl)benzamide]", "pIC50": "> 7.00"}, {"smiles": "CC(C)N(CC(F)(F)F)C(=O)c1cc(F)ccc1Oc1cncnc1N1CC2(CCN(C[C@@H]3CC[C@@H](NS(=O)(=O)N4CCOCC4)CO3)CC2)C1", "note": "[Example 108, 5-Fluoro-N-isopropyl-2-((4-(7-(((2S,5R)-5-(morpholine-4-sulfonamido)tetrahydro-2H-pyran-2-yl)methyl)-2,7-diazaspiro[3.5]nonan-2-yl)pyrimidin-5-yl)oxy)-N-(2,2,2-trifluoroethyl)benzamide]", "pIC50": "> 7.00"}, {"smiles": "CC(C)N(CC(F)(F)F)C(=O)c1cc(F)ccc1Oc1cncnc1N1CC2(CCN(C[C@@H]3CC[C@@H](NS(=O)(=O)C(C)C)CO3)CC2)C1", "note": "[Example 109, 5-Fluoro-N-isopropyl-2-((4-(7-(((2S,5R)-5-((1-methylethyl)sulfonamido)tetrahydro-2H-pyran-2-yl)methyl)-2,7-diazaspiro[3.5]nonan-2-yl)pyrimidin-5-yl)oxy)-N-(2,2,2-trifluoroethyl)benzamide]", "pIC50": "> 7.00"}, {"smiles": "CC(C)N(C(=O)c1cc(F)ccc1Oc1cncnc1N1CC2(CCN(C[C@@H]3CC[C@@H](NS(=O)(=O)C(C)C)CO3)CC2)C1)C1CC(F)(F)C1", "note": "[Example 110, N-(3,3-Difluorocyclobutyl)-5-fluoro-N-isopropyl-2-((4-(7-(((2S,5R)-5-((1-methylethyl)sulfonamido)tetrahydro-2H-pyran-2-yl)methyl)-2,7-diazaspiro[3.5]nonan-2-yl)pyrimidin-5-yl)oxy)benzamide]", "pIC50": "> 7.00"}, {"smiles": "CC(C)N(C(=O)c1cc(F)ccc1Oc1cncnc1N1CC2(CCN(C[C@@H]3CC[C@@H](NS(=O)(=O)C4CC4)CO3)CC2)C1)C1CC(F)(F)C1", "note": "[Example 111, 2-((4-(7-(((2S,5R)-5-(Cyclopropanesulfonamido)tetrahydro-2H-pyran-2-yl)methyl)-2,7-diazaspiro[3.5]nonan-2-yl)pyrimidin-5-yl)oxy)-N-(3,3-difluorocyclobutyl)-5-fluoro-N-isopropylbenzamide]", "pIC50": "> 7.00"}, {"smiles": "CC(C)N(C(=O)c1cc(F)ccc1Oc1cncnc1N1CC2(CCN(C[C@@H]3CC[C@@H](NS(=O)(=O)N(C)C)CO3)CC2)C1)C1CC(F)(F)C1", "note": "[Example 113, N-(3,3-Difluorocyclobutyl)-2-((4-(7-(((2S,5R)-5-((N,N-dimethylsulfamoyl)amino)tetrahydro-2H-pyran-2-yl)methyl)-2,7-diazaspiro[3.5]nonan-2-yl)pyrimidin-5-yl)oxy)-5-fluoro-N-isopropylbenzamide]", "pIC50": "> 7.00"}, {"smiles": "CCN(CC)S(=O)(=O)N[C@@H]1CC[C@@H](CN2CCC3(CC2)CN(c2ncncc2Oc2ccc(F)cc2C(=O)N(C(C)C)C2CC(F)(F)C2)C3)OC1", "note": "[Example 114, 2-((4-(7-(((2S,5R)-5-((N,N-Diethylsulfamoyl)amino)tetrahydro-2H-pyran-2-yl)methyl)-2,7-diazaspiro[3.5]nonan-2-yl)pyrimidin-5-yl)oxy)-N-(3,3-difluorocyclobutyl)-5-fluoro-N-isopropylbenzamide]", "pIC50": "> 7.00"}, {"smiles": "CC(C)N(C(=O)c1cc(F)ccc1Oc1cncnc1N1CC2(CCN(C[C@@H]3CC[C@@H](NS(=O)(=O)C4COC4)CO3)CC2)C1)C1CC(F)(F)C1", "note": "[Example 115, N-(3,3-Difluorocyclobutyl)-5-fluoro-N-isopropyl-2-((4-(7-(((2S,5R)-5-(oxetane-3-sulfonamido)tetrahydro-2H-pyran-2-yl)methyl)-2,7-diazaspiro[3.5]nonan-2-yl)pyrimidin-5-yl)oxy)benzamide]", "pIC50": "> 7.00"}]}]}
